According to US20160120858A1 (ACADEMIA SINICA, priority 2014, published 2016):
“Also recorded” adds a separate entry of the source.

What was measured:
[1] = system: hippocampal SC-CA1 synapses; assay: Tetanus-induced LTP (fEPSP), hippocampal slices; type: cell-based, mouse; settings: 4 uM
Experimental: For electrophysiological experiments, sagittal hippocampal slices (400 uM thick for extracellular, 300 uM thick for intracellular recordings) of Shank2^-/- mice (or ZnT3^-/- mice) and their wild-type littermates were prepared using a vibratome (Leica VT1200) in ice-cold dissection buffer containing (in mM) 212 sucrose, 25 NaHCO3, 5 KCl, 1.25 NaH2PO4, 0.5 CaCl2, 3.5 MgSO4, 10 D-glucose, 1.25 L-ascorbic acid, and 2 Na-pyruvate bubbled with 95% 02/5% CO2. CA3 was removed to prevent epileptiform activity. Slices were restored for 1 hour in 32° C. in a normal artificial CSF (ACSF) (In units of mM: 124 NaCl, 2.5 kCl, 1 NaH2PO4, 25 NaHCO3, 10 glucose, 2 CaC12, 2 Mg504 oxidized by 95% 02/5% CO2) For the recording, a single slice was moved to and maintained in submerged-type chamber at 28° C., continuously perfused with ACSF (2 mL/minute) saturated with 95% 02/5% CO2. Stimulation and recording pipettes were pulled from borosilicate glass capillaries (Harvard Apparatus) using a micropipette electrode puller ([…]). For extracellular recordings, mouse hippocampal slices at the age of postnatal day 21 to 35 were used. Field excitatory postsynaptic potentials (fEPSPs) were recorded in the stratum radiatum of the hippocampal CA1 region using pipettes filled with ACSF (1 MΩ). fEPSP was amplified (Multiclamp 700B, Molecular Devices), and digitized (Digidata 1440A, Molecular Devices) for measurements. The Schaffer collateral pathway was stimulated every 20 seconds with pipettes filled with ACSF (0.3 to 0.5 MΩ). The stimulation intensity was adjusted to yield a half-maximal response, and three successive responses were averaged and expressed relative to the normalized baseline. To induce LTP, high frequency stimulation (100 Hz, 1 s) was applied after a stable baseline was acquired.

Shank2^−/− mice = assay: Open field test; type: in vivo, mouse; settings: 30 mg/kg i.p.; for Locomotor activity (hyperactivity, excessive action) / Time spent in the center region (anxiety-like behavior): 30 mg/kg
Experimental: The injection was performed 2 hours before (Shank2^−/− mice and wild-type littermates), or 3 hours before (Tbr1^+/− mice and wild-type littermates) behavioral assays at the discretion of the facility. A within-subjects design was designed with a one week washout period (FIG. 8), and divided animals into two groups, vehicle-first and clioquinol-first group, to rule out carryover effects. Each mouse received a single acute dose of vehicle or clioquinol, and underwent a single behavioral task, one task per week. Testing was conducted in dedicated behavioral test rooms during the light phase (three-chamber test) and the dark phase (repetitive behaviors and open field test). The size of the open field box was 40×40×40 cm, and the center zone line was 13.3 cm apart from the edge. Mice were placed in the center in the beginning of the test, and mouse movements were recorded with a video camera for 60 minutes, and analyzed by Ethovision 10.0 (Noldus).

Tbr1^+/− mice = assay: Three-chamber social interaction assay, Tbr1 mice; type: in vivo, mouse; settings: 30 mg/kg, 3 hours before test
Excerpt: All mice were backcrossed into a C57BL/6 background, and housed and bred in a mouse vivarium at the Korea Advanced Institute of Science and Technology (KAIST, Shank2^−/−mice) and at Academia Sinica (Tbr1^+/− mice). Pups were kept with the dam until weaning at postnatal day 21. After weaning, animals were group housed in mixed-genotype groups of 3 to 5 mice per cages, and randomly subjected to electrophysiological and behavioral experiments. Animals at 3 to 5 weeks of age were used for electrophysiological experiments; male animals at 2 to 4 months of age were used for behavioral assays. For TFL-Zn staining, male animals at 8 weeks (for Shank2^−/−mice) were used. Wild-type littermates were used as controls.
The injection was performed 2 hours before (Shank2^−/− mice and wild-type littermates), or 3 hours before (Tbr1^+/− mice and wild-type littermates) behavioral assays at the discretion of the facility.
Testing was conducted in dedicated behavioral test rooms during the light phase (three-chamber test) and the dark phase (repetitive behaviors and open field test).
In short, the assay consisted of three phases of 10 minutes duration: habituation, social interaction (Stranger1 vs. Object), and social novelty recognition (Stranger 1 vs. Stranger 2). Exploration was defined as each instance in which wild-type or mutant mouse tries to sniff Object/Stranger, or orients its nose towards and come close to object/stranger. Individual movement tracks were analyzed by Ethovision 10.0 (Noldus) and modified by custom-designed software MatLab (Mathworks) to generate heat maps. Time spent in exploration was analyzed by the researcher who was blinded to the subject genotype (in Shank2 mice), or by using the Smart Video Tracking System (Panlab, in Tbr1 mice). In addition to exploration time, the preference index, which represents a numerical difference between time spent exploring the targets (Stranger1 vs. Object, or Stranger 2 vs. Stranger 1) divided by total time spent exploring both targets, as described previously.

Oc1c(I)cc(Cl)c2cccnc12 [clioquinol, 5-Chloro-7-Iodo-8-Hydroxyquinoline]
Tetanus (100 Hz)-induced LTP ([1]; Shank2^−/− SC-CA1 synapses): reversed the reduced tetanus-induced long-term potentiation
Tetanus (100 Hz)-induced LTP ([1]; Shank2^−/− SC-CA1 synapses, listed as CQ): restored LTP
Tetanus (100 Hz)-induced LTP ([1]; wild-type synapses): had no effect on LTP
Locomotor activity (hyperactivity, excessive action) (Shank2^−/− mice; Shank2^−/− mice): did not weaken
Time spent in the center region (anxiety-like behavior) (Shank2^−/− mice; Shank2^−/− mice): had no effect on the center-region time
Time spent in the center region (anxiety-like behavior) (Shank2^−/− mice; Shank2^−/− mice, listed as CQ): has no effect on the time spent in the center region
Locomotor activity (hyperactivity, excessive action) (Shank2^−/− mice; Shank2^−/− mice, listed as Clioquinol): did not improve excessive action
Locomotor behavior (Shank2^−/− mice; wild-type mice): had no effect
Time spent in the center region (anxiety-like behavior) (Shank2^−/− mice; wild-type mice, listed as CQ): has no effect on the time spent in the center region
Time spent in the center region (anxiety-like behavior) (Shank2^−/− mice; wild-type mice, listed as Clioquinol): had no effect
Social novelty recognition (Tbr1^+/− mice; Tbr1^+/− (HT) mice): had no effect on social novelty recognition
Social novelty recognition (Tbr1^+/− mice; Tbr1^+/− (HT) mice, listed as CQ): fails to enhance social novelty recognition; also recorded: has no effect on social novelty recognition
Social novelty recognition (Tbr1^+/− mice; wild-type mice): had no effect on social novelty recognition
Social novelty recognition (Tbr1^+/− mice; wild-type mice, listed as CQ): has no effect
